According to patent US20090005398A1, “Methods For The Treatment of Central Nervous System Tumors” (priority 2007, published 2009):

Tests used:
[1] = High throughput solubility assay; assay type: physicochemical; conditions: aqueous buffer, pH 7.4, 0.05M phosphate buffer
Protocol: Two samples are prepared. One (the standard sample) contains the compound at a fixed concentration of 20 μM in an aqueous/organic mixed solvent cocktail. The other (the test sample) contains the compound at a maximum concentration of 200 μM in pH 7.4, 0.05M phosphate buffer and shaking for 24 h. The test sample is filtered by 0.45μ filter and then spun for 10 min to remove any undissolved solid. HPLC analyses are preformed on these samples. The peak areas are used for computing solubility.

[2] = tested on: SNB-19; assay: Washout assay, recovery of cell growth (MTT); assay type: cell-based; conditions: SNB-19, glioblastoma; 3 days exposure then washout
Protocol: (§1) Seven glioma cell lines that can double at least once over three days were thawed and grown to 70-80% confluency before being used in the assay. On day 1, for each cell line, 2-3×10^5 cells were seeded into each well in 6-well cell culture plates and incubated at 37° C. overnight. […] The plates were incubated at 37° C. for 3 days.
(§2) On day 5, the compound was efficiently washed four times with culture medium supplemented with 20% fetal bovine serum (FBS) and then washed once in buffered saline solution (PBS). The cells were trypsinized. For each of the concentrations, compound-treated cell lines were plated into five 96-well plates at 5000 cells per well. For the next 4 consecutive days, one plate of the cells was taken out of the incubator and cell proliferation was measured by MTT ELISA assay.
(§3) The washout assay is designed to follow the cells' recovery from exposure to the compound. Each glioma cell line was assayed at least twice. The criteria for evaluating sensitivity or resistance was Last Growth Back Concentration (LGC), if LGC<=30 nM, the cell line is considered sensitive; if LGC>=1 uM, it is considered resistant; if LGC is in between these two concentrations, the cell line is considered intermediate. Based on criteria set, all the glioma cell lines appeared to be sensitive to the compound of Example 1.

[3] = tested on: A172; assay: Washout assay, recovery of cell growth (MTT); assay type: cell-based; conditions: A172, glioblastoma; 3 days exposure then washout
Protocol: as §1, §2, §3

[4] = tested on: SF-539; assay: Washout assay, recovery of cell growth (MTT); assay type: cell-based; conditions: SF-539, astrocytoma; 3 days exposure then washout
Protocol: as §1, §2, §3

[5] = tested on: H4; assay: Washout assay, recovery of cell growth (MTT); assay type: cell-based; conditions: H4, glioma; 3 days exposure then washout
Protocol: as §1, §2, §3

[6] = tested on: SW1088; assay: Washout assay, recovery of cell growth (MTT); assay type: cell-based; conditions: SW1088, astrocytoma; 3 days exposure then washout
Protocol: as §1, §2, §3

[7] = tested on: SF-295; assay: Washout assay, recovery of cell growth (MTT); assay type: cell-based; conditions: SF-295, glioblastoma; 3 days exposure then washout
Protocol: as §1, §2, §3

[8] = tested on: SF-268; assay: Washout assay, recovery of cell growth (MTT); assay type: cell-based; conditions: SF-268, glioblastoma; 3 days exposure then washout
Protocol: as §1, §2, §3

[9] = tested on: cancer cell lines; assay: Methylene Blue, Cell-Titre Glo Growth or Multiple Cell Line cellular proliferation assays; assay type: cell-based
Protocol: Generally, exponentially growing cell lines of different tumor origins, cultured in appropriate media containing 10% fetal bovine serum at 37° C. in a 5% CO2 incubator were plated at low density (less than 2000 cells/well) in 96-well plates. Twenty four hours post-plating, cells were treated with different concentrations of compound ranging from 10 uM to 0.04 nM. Several wells were left untreated as a control. Seventy two hours post-treatment, cell numbers were determined using 100 μl per well of methylene blue (Sigma M9140) (0.5% in 50:50 Ethanol:water). Stain was incubated at room temperature for 30 minutes before plates were rinsed and dye solubilized in 1% N-lauroyl sarcosine, sodium salt, (Sigma L5125, in PBS) (further details of a methylene blue assay are described below). Plates were read on a microplate reader, measuring the OD at 620 nm.
Exponentially growing cell lines of different tumor origins, cultured in appropriate media containing 10% fetal bovine serum at 37° C. in a 5% CO2 incubator were plated at low density (less than 2000 cells/well) in 96-well plates. […] Seventy two hours post-treatment, cell numbers were determined using 50-100 ul per well of CellTiter-Glo (Promega #G7573). Plates were incubated at room temperature for 15 minutes and the chemiluminescent signal was read on the Victor V or Envison 2100 reader. […]

SMILES: C[C@@H](Oc1cc(-n2cnc3ccc(CN4CCN(C)CC4)cc32)sc1C(N)=O)c1ccccc1C(F)(F)F [Example 1, 5-{6-[(4-Methylpiperazin-1-yl)methyl]-1H-benzimidazol-1-yl}-3-{(1R)-1-[2-(trifluoromethyl)phenyl]ethoxy}thiophene-2-carboxamide]
- solubility at 24 h [1]: > 100 µM
- LGC (Last Growth Back Concentration) [2]: 10 nM
- LGC (Last Growth Back Concentration) [3]: <10 nM
- LGC (Last Growth Back Concentration) [4]: 30 nM
- LGC (Last Growth Back Concentration) [5]: 10 nM
- LGC (Last Growth Back Concentration) [6]: 10 nM
- LGC (Last Growth Back Concentration) [7]: 10 nM
- LGC (Last Growth Back Concentration) [8]: 10 nM
- IC50 [9]: < 1000 nM
